# Assay results taken from paper PMC3690454, “14-3-3 Proteins Interact with a Hybrid Prenyl-Phosphorylation Motif to Inhibit G Proteins” (Cell, 2013).
# Square brackets hold non-standard residues; d marks the D form. Ends that are not written are not given here. Peptide text beside a SMILES is read from it. pS = N[C@@H](COP(=O)(O)O)C(=O)O
# T1: 14-3-3ζ (Homo sapiens, UniProt P63104)
# T1 construct: hexa-His; made in house; host or cells: E. coli BL21(DE3) Star
# T1 sequence (P63104 1-245): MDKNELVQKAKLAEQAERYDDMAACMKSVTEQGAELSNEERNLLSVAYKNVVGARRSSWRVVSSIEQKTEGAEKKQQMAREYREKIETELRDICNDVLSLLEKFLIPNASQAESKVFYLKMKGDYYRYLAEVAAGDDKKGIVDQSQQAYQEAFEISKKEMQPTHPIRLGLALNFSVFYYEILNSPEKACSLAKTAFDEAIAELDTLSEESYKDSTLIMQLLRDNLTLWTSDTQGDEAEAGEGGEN
# T2: hexa-His-tagged 14-3-3ζ (UniProt P63104 1-245)
# T2 construct: 14-3-3 protein zeta; expressed and purified essentially as in Kostelecky et al., 2009; eluted as a dimer of ~60 kDa; the ITC methods call it 'the 14-3-3ζ domain'; source: E. coli BL21(DE3) Star, purified (HisTrap, size-exclusion chromatography)
# T2 sequence: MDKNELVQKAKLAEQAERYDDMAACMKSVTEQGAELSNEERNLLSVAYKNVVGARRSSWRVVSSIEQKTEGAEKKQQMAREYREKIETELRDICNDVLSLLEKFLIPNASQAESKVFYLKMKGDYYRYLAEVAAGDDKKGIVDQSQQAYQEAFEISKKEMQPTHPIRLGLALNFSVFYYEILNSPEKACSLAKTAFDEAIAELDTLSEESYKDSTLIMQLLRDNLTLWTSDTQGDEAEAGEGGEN
# B1: Rap1A C-terminal peptide, phosphorylated, not geranylgeranylated (biotinylated) (peptide)
# peptide: EKKKPKKK[pS]C
# modifications: not fully specified (N-terminus); also: biotinylated
# notes: Rap1A C-terminal peptide as Dm2 but without the geranylgeranyl modification; also called Rap1A+P-GG; nonmodified phosphopeptide; source: synthetic peptide
# Assays:
# [1] = tested on: Rnd3/14-3-3 interaction; assay: Co-immunoprecipitation of Rnd3 with 14-3-3 proteins from treated COS7 cells; type: cell-based; details: staurosporine 100 nM 2 hr, calyculin A 100 nM 20 min, FTI (L-744,832) 10 μM 16 hr, immunoblot
# Procedure: (§1) COS7 cells grown in Dulbecco’s modified Eagle’s medium (DMEM) containing 10% bovine fetal calf serum and penicillin/streptomycin (Invitrogen) were electroporated with 5 μg DNA at 250 V and 960 μF using 0.4 cm Gene Pulser Cuvettes (Bio-Rad) in 250 μl of electroporation buffer (120 mM KCl, 10 mM K2PO4/KH2PO4 [pH 7.6], 25 mM HEPES [pH 7.6], 2 mM MgCl2, and 0.5% Ficoll). Cells were analyzed 24 hr after transfection. NIH 3T3 cells grown in DMEM containing 10% donor bovine serum and penicillin/streptomycin were transfected using FuGENE 6 (Roche) according to the manufacturer’s instructions. Where indicated, cells were treated for 20 min with 100 nM calyculin A (Alexis); for 2 hr with 100 nM staurosporine (Calbiochem), 20 μM H-1152 (Calbiochem), 1 μM bisindolylmaleimide I (BIM1, Calbiochem), or 100 nM phorbol-12-myristate-13-acetate (PMA, Cell Signaling Technology); and for 16 hr with 10 μM L-744,832 farnesyltransferase inhibitor (FTI, Calbiochem).
# Transfected COS7 cells were lysed in lysis buffer LB (1% Triton X-100, 20 mM Tris–HCl [pH 8], 130 mM NaCl, 1 mM dithiothreitol [DTT], 10 mM sodium fluoride, complete EDTA-free protease inhibitor cocktail [Roche], phosphatase inhibitor cocktails [set II+IV, Calbiochem]). After centrifugation (13,000 g, 4°C, 10 min), soluble proteins were precleared then incubated with either mouse nonimmune IgG as a control, mouse anti-HA (HA-7) or mouse anti-FLAG (M2) antibody on agarose beads (Sigma-Aldrich) for 2 hr at 4°C. Beads were washed five times with lysis buffer (containing 260 mM NaCl), then bound proteins were eluted in Laemmli sample buffer (LSB), resolved by SDS–PAGE and analyzed by immunoblotting.
# [2] = tested on: pS210-Rnd3; assay: pS210-Rnd3 immunoblot in treated COS7 cells; type: cell-based; details: 2 hr, PMA 100 nM, BIM1 1 μM
# Procedure: as §1
# Rabbit polyclonal antisera were raised against phosphorylated Rnd3-S210 peptide (KNVKRNKpSQRA) by Eurogentec, Seraing, Belgium. Nonspecific antibodies were removed through a nonphosphopeptide (KNVKRNKSQRA) column followed by a specific phosphoenrichment of the antibodies by affinity purification using a phosphopeptide column. […]
# [3] = tested on: GST-14-3-3β / Rnd3 interaction; assay: Peptide competition in GST-14-3-3β pull-down of FLAG-Rnd3 from COS7 lysates; type: binding; details: peptide 10 μg/ml preincubated 15 min at 4°C with GST-14-3-3β; immunoblot
# Procedure: Recombinant GST-14-3-3β was expressed and purified from E. coli (Extended Experimental Procedures). FLAG-Rnd3-transfected COS7 cells were lysed in LB buffer. After removal of insoluble material, precleared cell lysates were incubated at 4°C for 2 hr with the recombinant GST or GST-14-3-3β protein (5 μg) on glutathione beads (Amersham Biosciences). Beads were washed with LB buffer before eluting the proteins in LSB. The proteins were resolved by SDS-PAGE and analyzed by immunoblotting.
# For peptide competition experiments (Table S3; Extended Experimental Procedures), peptides (10 μg/ml) were preincubated for 15 min at 4°C with the GST-14-3-3β prior to the addition of precleared cell lysates.
# [4] = target: T1, 14-3-3ζ; assay: Biolayer interferometry (Octet RED96), immobilised biotinylated peptides, 14-3-3ζ in solution; type: binding; details: determined by steady-state analysis, typical experiment (n ≥ 3)
# Procedure: Biolayer interferometry was carried out using an Octet RED96 instrument (ForteBio). Biotinylated peptides were immobilized on streptavadin-coated biosensors (ForteBio) at a concentration of 1 μg/ml in BI buffer (25 mM Tris, 150 mM NaCl, 0.1% Tween-20), for 300 s. The immobilization typically reached a response level of 2 nm. Association and dissociation curves were obtained through addition of a dilution series of 14-3-3ζ ([…]) for 300 s followed by dissociation in BI buffer for 300 s using the Octet acquisition software. The binding data were fitted using the Octet analysis software.
# [5] = target: T1, 14-3-3ζ; assay: Isothermal titration calorimetry of Rnd3 C-terminal peptides with 14-3-3ζ; type: binding; details: ITC
# Procedure: ITC measurements were carried out using a VP-ITC200 instrument (GE Healthcare). The 14-3-3ζ domain (see Extended Experimental Procedures) was used at 50–60 μM in ITC buffer (50 mM Tris [pH 7.5]), 100 mM NaCl, 1 mM TCEP). Rnd3 C-terminal peptides were solubilized in ITC buffer and used at 500–600 μM. Titrations were carried out at 25°C in triplicate. Each titration was fitted to a simple one-site binding model using the Origin software provided with the instrument. Titrations with nonbinding peptides were carried out at 15°C and 25°C.
# GST-14-3-3β protein was expressed as previously reported ([Yaffe et al., 1997]). A hexa-His-tagged version of 14-3-3ζ was expressed and purified essentially as previously reported ([Kostelecky et al., 2009]). In brief, the E. coli strain BL21(DE3) Star (Invitrogen) was transformed with the expression plasmid that was maintained by 34 μg/ml chloramphenicol. E. coli cells were grown to OD600nm of 0.7-0.8 in TB medium at 37°C and protein expression induced by 1 mM IPTG for 5 hr at 30°C. Pelleted cells were suspended in buffer A (25 mM Tris [pH 7.5], 100 mM NaCl, 1 mM EDTA, and 1 mM DTT) and disrupted by sonication. Insoluble material was cleared by high-speed centrifugation and the cleared lysate applied to a 5 ml HisTrap column using an AKTA system (GE Healthcare). The 14-3-3ζ protein was eluted with a linear gradient (0–500 mM) of Imidazole in buffer A. Finally, the protein was subjected to size-exclusion chromatography using a High-Load S200 pg column. As previously described, 14-3-3ζ eluted as a dimer with a molecular weight of ∼60 kDa. The final yield of 14-3-3ζ was 30–40 mg per liter of TB medium.
# [6] = target: biotinylated Rnd3 C-terminal peptide, phosphorylated on S240 (+P−F) (human); assay: BLI; Octet RED96; biotinylated peptides immobilised on streptavidin biosensors; dilution series of 14-3-3ζ; 25 mM Tris, 150 mM NaCl, 0.1% Tween-20; KD of +P-F by steady-state analysis
# [7] = target: biotinylated Rnd3 C-terminal peptide, phosphorylated on S240 and geranylated (+P+G) (human); assay: as above
# [8] = target: biotinylated Rnd3 C-terminal peptide, phosphorylated on S240 and isoprenylated (+P+Ipr) (human); assay: as above
# [9] = target: biotinylated Rnd3 C-terminal peptide, phosphorylated on S240 and farnesylated on C241 (+P+F) (human); assay: as above
# [10] = target: biotinylated Rnd3 C-terminal peptide, phosphorylated on S240 and geranylgeranylated (+P+GG) (human); assay: as above
# [11] = target: T2, hexa-His-tagged 14-3-3ζ; assay: BLI; Octet RED96; biotinylated peptides immobilised on streptavidin-coated biosensors (1 μg/ml, 300 s); dilution series of 14-3-3ζ for 300 s, dissociation 300 s; BI buffer 25 mM Tris, 150 mM NaCl, 0.1% Tween-20; data of a typical experiment (n ≥ 3); details: both partners purified
molecule,measurement,setting,value
"CC[C@H](C)[C@@H](CO[C@@H](Cc1ccccc1)C(=O)N[C@@H](CCS(C)(=O)=O)C(=O)OC(C)C)NC[C@@H](N)CS [FTI, L-744,832]",effect on Rnd3/14-3-3 interaction,[1],prevented
CN[C@@H]1C[C@H]2O[C@@](C)([C@@H]1OC)n1c3ccccc3c3c4c(c5c6ccccc6n2c5c31)C(=O)NC4 [staurosporine],effect on Rnd3/14-3-3 interaction,[1],reduced
"CN(C)CCCn1cc(C2=C(c3c[nH]c4ccccc34)C(=O)NC2=O)c2ccccc21 [BIM1, bisindolylmaleimide I]",effect on pS210-Rnd3,[2],reduced
CC(C)C[C@H](NC(=O)[C@@H](N)CC(=O)O)C(=O)N[C@@H](CCCNC(=N)N)C(=O)N[C@@H](CCCCN)C(=O)N[C@@H](CC(=O)O)C(=O)N[C@@H](CCCCN)C(=O)N[C@@H](C)C(=O)N[C@@H](CCCCN)C(=O)N[C@@H](COP(=O)(O)O)C(=O)N[C@@H](CS)C(=O)O [+P-F] (H-DLRKDKAK[pS]C-OH),inhibition of the interaction between GST-14-3-3β and Rnd3,[3],only slightly inhibited
same,Kd,[4],1300 nM
same,Kd,"[5]; 25°C, 50 mM Tris pH 7.5, 100 mM NaCl, 1 mM TCEP, one-site model, mean ± SD, n = 3",1060 ± 40 nM
same,Stoichiometry (N),"[5]; 25°C, 14-3-3ζ 50–60 μM, peptide 500–600 μM, 50 mM Tris pH 7.5, 100 mM NaCl, 1 mM TCEP, one-site model, mean ± SD, n = 3",0.89 ± 0.017
same,TΔS,"[5]; 25°C, mean ± SD, n = 3",2.469 ± 0.231 kcal/mol
same,ΔG,"[5]; 25°C, mean ± SD, n = 3",-8.152 ± 0.027 kcal/mol
same,ΔH,"[5]; 25°C, mean ± SD, n = 3",-5.683 ± 0.204 kcal/mol
same,N (printed in Figure 5C),[5]; fitted curve of Figure 5C,0.89
"CCCCCCCCCCCCCC(=O)O[C@@H]1[C@@H](C)[C@@]2(O)[C@@H](C=C(CO)C[C@]3(O)C(=O)C(C)=C[C@@H]23)[C@@H]2C(C)(C)[C@]12OC(C)=O [PMA, phorbol-12-myristate-13-acetate]",effect on pS210-Rnd3,[2],increase
COC[C@@H]([C@H](O)[C@H](O)C(=O)NCC[C@H](C)c1nc(/C=C/C[C@@H]2O[C@]3(C[C@@H](O)[C@@H]2C)O[C@H]([C@H](C[C@H](O)[C@H](C)[C@H](O)[C@H](C)/C=C(C)/C(C)=C/C=C/C(C)=C\C#N)OC)[C@H](OP(=O)(O)O)C3(C)C)co1)N(C)C [calyculin A],effect on Rnd3/14-3-3 interaction,[1],increased
"N-CDRSKpSAPTS-C [PKC, reference compound]",inhibition of the interaction between GST-14-3-3β and Rnd3,[3],inhibited
hexa-His-tagged 14-3-3ζ (from UniProt P63104 1-245) (natural protein),Kd,[6],1300 nM
same,Kd,[7],56.5 nM
same,koff,[7],0.032 s⁻¹
same,kon,[7],570000 M⁻¹ s⁻¹
same,Kd,[8],556 nM
same,koff,[8],0.13 s⁻¹
same,kon,[8],240000 M⁻¹ s⁻¹
same,Kd,[9],32.4 nM
same,koff,[9],0.028 s⁻¹
same,kon,[9],860000 M⁻¹ s⁻¹
same,Kd,[10],23.2 nM
same,koff,[10],0.021 s⁻¹
same,kon,[10],890000 M⁻¹ s⁻¹
B1,Kd,[11],> 1000 nM
